Measurements published in patent publication US20180369203A1, “METHODS OF TREATING CANCER BY ADMINISTERING A MEK INHIBITOR IN COMBINATION WITH A PROTEASOME INHIBITOR” (The Jackson Laboratory, priority 2015, published 2018).

Tested on: Aβ1-42 peptides
Experiment: In vitro amyloid seeding of Aβ1-42 with lysates of treated A2058 cells (ThT binding, TEM)
Format: cell-based, human
Experimental: FIGS. 5A-Y show MEK and proteasome inhibition provoke protein aggregation and amyloidogenesis. (A-B) WM115 cells treated with 20 nM AZD6244, 100 nM Bortezomib, or both for 24 hr were stained with Lys48-specific ubiquitin antibodies. Arrowheads mark ubiquitin-positive aggregates. Scale bar: 10 μm. Amounts of aggregates per cell were quantitated using ImageJ (median, n≥100, ANOVA). (C-F) Following transfection with polyQ79 plasmids alone or with both polyQ79 and HSF1^S326D plasmids for one day, HEK293T cells were treated with inhibitors as described in (A-B). Cells were either analyzed for aggregate size or stained with 10 μM ThT. (G) Treated tumor cell lines were stained with 10 μM ThT. Geometric means were used to calculate fold changes in ThT fluorescence intensity and the log 2(FC) values were presented as a heat map. […] Following treatments, AOs were quantitated by ELISA using A11 antibodies (mean±SD, n=3, ANOVA). (I) Intrinsic AOs were detected in human tumor cell lines (mean±SD, n=3, ANOVA). […] Amyloids were quantitated by ELISA (mean±SD, n=3, Student's t-test). […] AF formation was monitored by ThT binding (mean±SD, n=3, ANOVA). […] Amyloids were quantitated (mean±SD, n=3, Student's t-test). […] Viable cells were quantitated by CellTiter® blue (mean±SD, n=6, Student's t-test). […] Viable cells were quantitated (mean±SD, n=6, ANOVA). […]
This figure is related to FIG. 5. […] (C) Quantitation of protein aggregate size. […]

With `CC(C)C[C@H](NC(=O)[C@H](Cc1ccccc1)NC(=O)c1cnccn1)B(O)O` [Bortezomib, bortezomib] the “amyloid seeding efficacy of cell lysates” value (20 μM Aβ1-42, ThT binding) was “augmented” and the “fibril morphology after seeding (transmission electron microscopy)” value (37° C., 2 days) was “mature fibrils”.
